The values that follow come from patent US20090263397A1, “Combination anti-cancer therapy” (priority 2007, published 2009).

Experiment [1] relates to IGF-1R. Put plainly: RTK capture array, pIGF-1R in H292 cells. The experiment is classed as cell-based, human.
Description: Also shown is the effect of taxol (100 nM) on IGF-1R phosphorylation for H292 and H358 tumor cells. Phosphorylation was captured 24 hours after dosing with taxol and realized using the Proteome Profiler™ RTK capture Array (R & D Systems).
A. Effect of varying concentrations of taxol on pIGF-1R for H292 tumor cells. pIGF-1R was measured 24 hours after dosing and realized using the proteome profiler RTK capture array (R & D Systems).
A. H292 NSCLC tumor cells were treated with 30 nM paclitaxel for varying time points, alone or in the presence of 3 μM OSI-906. The phosphorylation of IGF-1R was determined by an RTK capture array, in duplicate (pIGF-1R=phosphorylated IGF-1R).
(§1) Proteome profiler arrays housing 42 different RTKs were purchased from R&D systems (Minneapolis, Minn.) and processed according to the manufacturer's protocol. RTKs included on the array include: HER1, HER2, HER3, HER4, FGFR1, FGFR2a, FGFR3, FGFR4, IR, IGF-1R, Ax1, Dtk, Mer, HGFR, MSPR, PDGFRα, PDGFRβ, SCFR, Flt-3, M-CSFR, c-Ret, ROR1, ROR2, Tie-1, Tie-2, TrkA, TrkB, TrkC, VEGFR1, VEGFR2, VEGFR3, MuSK, EphA1, EphA2, EphA3, EphA4, EphA6, EphA7, EphB1, EphB2, EphB4, EphB6. This array was used as an RTK capture assay for determining pIGF-1R levels.
For experiment [2], the system named is IGF-1R complex. Put plainly: phosphorylation of the IGF-1R complex in MDA-1186 (data not shown). The experiment is classed as cell-based, human.
In experiment [3] the test system is Akt. The experiment can be described thus: Western blotting of Akt phosphorylation, H292. The experiment is classed as cell-based, human. The note with it: H292 in vitro; 30 nM paclitaxel; 2, 6, 24 hours.
Description: H292 cells were treated with 30 nM paclitaxel (in the presence and absence of 3 μM OSI-906), and the phosphorylation state for Akt was determined by Western blotting.
For experiment [4], the system named is IGF-1R. Put plainly: In vivo pharmacodynamic study, pIGF-1R in H292 xenografts. As to conditions: mice bearing H292 xenografts; 24 mg/kg paclitaxel; 24 hours.
Description: B. Mice bearing H292 xenografts were treated with 24 mg/kg paclitaxel for 24 hours prior to harvesting tumors. Tumors were profiled for pIGF-1R levels using the RTK capture array, in duplicate. Four separate animals were used: Control (Ctrl) A1; Control (Ctrl) A2; Paclitaxel-treated A1; and Paclitaxel-treated A2.
Proteome profiler arrays housing 42 different RTKs were purchased from R&D systems (Minneapolis, Minn.) and processed according to the manufacturer's protocol. […] This array was used as an RTK capture assay for determining pIGF-1R levels.
Female athymic nude nu/nu CD-1 mice (6-8 wks, 22-29 g) were obtained from Charles River Laboratories (Wilmington, Mass.). Animals were allowed to acclimate for a minimum of one week prior to initiation of a study. Throughout the studies, animals were allowed sterile rodent chow and water ad libitum, and animals were maintained under specific pathogen free conditions.
NCI—H292 NSCLC tumor cells were harvested from cell culture flasks during exponential cell growth, washed twice with sterile PBS, counted and resuspended in PBS to a suitable concentration before s.c. implantation on the right flank of female nu/nu CD-1 mice. Tumors were established to 200+/−50 mm in size before randomization into treatment groups. Paclitaxel or cisplatin were administered at the indicated dose, and tumors from treated mice were harvested at 24 hours after dosing. […]
The test system of experiment [5] is IGF-1R. The experiment can be described thus: RTK capture array, pIGF-1R in H358 cells. The note with it: taxol 100 nM, 24 hours.
For experiment [6], the system named is MDA-MB-231 cells. The experiment can be described thus: Caspase 3/7 Glo apoptosis assay, MDA-MB-231. The experiment is classed as cell-based, human. As to conditions: 24 hours.
Description: Apoptosis measurements were captured 24 hours after dosing, and apoptosis was assayed by measurement of caspase 3/7 activity. Measurement of apoptosis: Induction of apoptosis as measured by increased Caspase 3/7 activity was determined using the Caspase 3/7 Glo assay (Promega Corporation, Madison, Wis.). Cell lines were seeded at a density of 3000 cells per well in a 96-well plate. 24 hours after plating cells were dosed with varying concentrations of drug, either as a single agent or in combination. The signal for Caspase 3/7 Glo was determined 24 hours after dosing. The caspase 3/7 activity was normalized to cell number per well, using a parallel plate treated with Cell Titer Glo (Promega Corporation, Madison, Wis.). Signal for each well was normalized using the following formula: Caspase 3/7 Glo luminescence units/Cell Titer Glo fraction of DMSO control.
For experiment [7], the system named is A673 tumor cells. Put plainly: Caspase 3/7 Glo apoptosis assay, A673. The experiment is classed as cell-based, human. The note with it: in the presence of doxorubicin (333 nM or 1 uM), listed as OSI-906. The protocol: FIG. 3: OSI-906 synergizes with doxorubicin to inhibit cell growth and survival in A673 ES (Ewing's Sarcoma) tumor cells. A. Effect of varying concentrations of doxorubicin, in the presence and absence of 5 μM OSI-906, on the proliferation of A673 tumor cells. Proliferation data were collected 48 hours after dosing and realized using the Cell Titer Glo™ assay (Promega). The dotted line in the plot represents the calculated theoretical expectation if the combination was additive in nature and was determined using the Bliss model for additivity. B. Effect of varying concentrations of OSI-906 (0, 300 nM, and 1 μM) on the induction of apoptosis for A673 tumor cells, in the presence or absence of 333 nM doxorubicin. Apoptosis was determined by measuring caspase 3/7 activity (Caspase GlO™, Promega), and measurements were captured 48 hours after dosing.
FIG. 5: OSI-906 has the potential to promote greater synergy with doxorubicin in ES tumor cells than neutralizing IGF-1R antibodies. Effect of varying concentrations of OSI-906 (0, 300 nM, 1 μM, and 3 μM) or the IGF-1R neutralizing antibody α-IR3 (10 ug/ml) on the induction of apoptosis for A673 tumor cells, in the presence or absence of 333 nM or 1 uM doxorubicin. Apoptosis was determined by measuring caspase 3/7 activity (Caspase GlO™, Promega), and measurements were captured 24 hours after dosing.

Experiment [8] relates to SK-ES-1 tumor cells. The experiment can be described thus: Caspase 3/7 Glo apoptosis assay, SK-ES-1. The experiment is classed as cell-based, human. The note with it: in the presence of 1 μM doxorubicin, 24 hours.
Description: Effect of varying concentrations of OSI-906 (0, 300 nM, 1 μM, 3 μM, or 5 μM) on the induction of apoptosis for SK-ES-1 tumor cells, in the presence or absence of 1 μM doxorubicin. Apoptosis was determined by measuring caspase 3/7 activity (Caspase GlO™, Promega), and measurements were captured 24 hours after dosing. Measurement of apoptosis: Induction of apoptosis as measured by increased Caspase 3/7 activity was determined using the Caspase 3/7 Glo assay (Promega Corporation, Madison, Wis.). Cell lines were seeded at a density of 3000 cells per well in a 96-well plate. 24 hours after plating cells were dosed with varying concentrations of drug, either as a single agent or in combination. The signal for Caspase 3/7 Glo was determined 24 hours after dosing. The caspase 3/7 activity was normalized to cell number per well, using a parallel plate treated with Cell Titer Glo (Promega Corporation, Madison, Wis.). Signal for each well was normalized using the following formula: Caspase 3/7 Glo luminescence units/Cell Titer Glo fraction of DMSO control.
The subject of experiment [9] is A673 tumor cells. Put plainly: Cell Titer Glo overall cell growth, A673. The experiment is classed as cell-based, human. As to conditions: 5 μM OSI-906, 48 hours, versus Bliss additivity.
Description: A. Effect of varying concentrations of doxorubicin, in the presence and absence of 5 μM OSI-906, on the proliferation of A673 tumor cells. Proliferation data were collected 48 hours after dosing and realized using the Cell Titer Glo™ assay (Promega). The dotted line in the plot represents the calculated theoretical expectation if the combination was additive in nature and was determined using the Bliss model for additivity. […] Measurement of Cell Proliferation: Cell proliferation was determined using the Cell Titer Glo assay (Promega Corporation, Madison, Wis.). Tumor cells were seeded at a density of 3000 cells per well in a 96-well plate. 24 hours after plating cells were dosed with varying concentrations of drug, either as a single agent or in combination. Using parallel replicate plates, the signal for Cell Titer Glo was determined 24 hours after dosing.
Experiment [10] has as its system SK-ES-1 tumor cells. Put plainly: Cell Titer Glo overall cell growth, SK-ES-1. The experiment is classed as cell-based, human. As for the experimental part: Measurement of Cell Proliferation: Cell proliferation was determined using the Cell Titer Glo assay (Promega Corporation, Madison, Wis.). […] Using parallel replicate plates, the signal for Cell Titer Glo was determined 24 hours after dosing.

In experiment [11] the test system is IR. The experiment can be described thus: Proteome Profiler RTK capture array, pIR in A673. The experiment is classed as cell-based, human. The note with it: for phosphorylation of IR, single agent: OSI-906 3 μM, Doxorubicin 500 nM, MAB391 10 ug/ml.
Description: (§2) Effect of OSI-906 (3 μM), Doxorubicin (500 nM), the combination of OSI-906+ doxorubicin, MAB391 (10 ug/ml), and the combination of MAB391+ doxorubicin on the phosphorylation states for IR and IGF-1R. Phosphorylation of IR and IGF-1R was realized using the Proteome Profiler™ RTK capture Array (R & D Systems).
as §1
For experiment [12], the system named is H460 tumor cells. The experiment can be described thus: Caspase 3/7 Glo apoptosis assay, H460. The experiment is classed as cell-based, human. The note with it: 24 hours.
Description: (§3) The combination of varying concentrations of OSI-906 (30 nM-3 μM) with 3 nM Taxol on the induction of apoptosis at 24 hours post dosing (Caspase GlO™, Promega) was determined for a panel of 5 NSCLC tumor cell lines (H460, H292, H322, H358, and Calu6).
A. Effect of varying concentrations of OSI-906, alone or in the presence of 12 nM Taxol, on apoptosis for H460 tumor cells. Apoptosis was measured 24 hours after dosing and determined by caspase 3/7 activity (Caspase GlO™, Promega). […] The dotted line represents the theoretical expectation for additivity and was calculated using the Bliss model for additivity.
(§4) Measurement of apoptosis: Induction of apoptosis as measured by increased Caspase 3/7 activity was determined using the Caspase 3/7 Glo assay (Promega Corporation, Madison, Wis.). Cell lines were seeded at a density of 3000 cells per well in a 96-well plate. 24 hours after plating cells were dosed with varying concentrations of drug, either as a single agent or in combination. The signal for Caspase 3/7 Glo was determined 24 hours after dosing. The caspase 3/7 activity was normalized to cell number per well, using a parallel plate treated with Cell Titer Glo (Promega Corporation, Madison, Wis.). Signal for each well was normalized using the following formula: Caspase 3/7 Glo luminescence units/Cell Titer Glo fraction of DMSO control.
Experiment [13] has as its system H292 tumor cells. Put plainly: Caspase 3/7 Glo apoptosis assay, H292. The experiment is classed as cell-based, human. The note with it: OSI-906 30 nM-3 μM with 50 uM cisplatin, 24 hours, compared with single agents.
Description: The combination of varying concentrations of OSI-906 (30 nM-3 μM) with 50 uM cisplatin on the induction of apoptosis at 24 hours post dosing (Caspase Glo, Promega) was determined for a panel of 5 NSCLC tumor cell lines (H460, H292, H322, H358, and Calu6). The fold induction in apoptosis greater than the sums achieved by the single agents is noted in the table.
as §4
Experiment [14] deals with H322 tumor cells. The experiment can be described thus: Caspase 3/7 Glo apoptosis assay, H322. The experiment is classed as cell-based, human.
Description: as §3
Measurement of apoptosis: Induction of apoptosis as measured by increased Caspase 3/7 activity was determined using the Caspase 3/7 Glo assay (Promega Corporation, Madison, Wis.). Cell lines were seeded at a density of 3000 cells per well in a 96-well plate. 24 hours after plating cells were dosed with varying concentrations of drug, either as a single agent or in combination. The signal for Caspase 3/7 Glo was determined 24 hours after dosing. The caspase 3/7 activity was normalized to cell number per well, using a parallel plate treated with Cell Titer Glo (Promega Corporation, Madison, Wis.). Signal for each well was normalized using the following formula: Caspase 3/7 Glo luminescence units/Cell Titer Glo fraction of DMSO control. All graphs were generated using PRISM® software (Graphpad Software, San Diego, Calif.).
The test system of experiment [15] is H358 tumor cells. The experiment can be described thus: Caspase 3/7 Glo apoptosis assay, H358. The experiment is classed as cell-based, human. As to conditions: Taxol 3 nM, 24 hours.
Description: as §3
The effect of varying concentrations of OSI-906 (0, 0.3 nM, 1 μM, 3 μM, and 5 μM) on apoptosis in the presence or absence of Taxol (3 nM) for H292 and H358 NSCLC tumor cell lines. Apoptosis measurements were determined by measuring caspase 3/7 activity (Caspase GlO™, Promega) and were captured 24 hours after dosing.
as §4
Experiment [16] deals with H460 tumor cells. The experiment can be described thus: Cell Titer Glo overall cell growth, H460. The experiment is classed as cell-based, human.
Description: B. Effect of varying concentrations of taxol, alone or in the presence of 5 μM OSI-906 on overall cell growth. Overall cell growth was determined by the Cell Titer Glo™ assay (Promega) and measured 72 hours after dosing. The dotted line represents the theoretical expectation for additivity and was calculated using the Bliss model for additivity. Measurement of Cell Proliferation: Cell proliferation was determined using the Cell Titer Glo assay (Promega Corporation, Madison, Wis.). Tumor cells were seeded at a density of 3000 cells per well in a 96-well plate. 24 hours after plating cells were dosed with varying concentrations of drug, either as a single agent or in combination. Using parallel replicate plates, the signal for Cell Titer Glo was determined 24 hours after dosing.
Experiment [17] relates to MDA-1186 tumor cells. The experiment can be described thus: Caspase 3/7 Glo apoptosis assay, MDA-1186. The experiment is classed as cell-based, human.
Description: The effect of varying concentrations of OSI-906 (0, 0.3 nM, 1 uM, 3 μM, and 5 μM) on apoptosis in the presence or absence of Taxol (10 nM) or cisplatin (50 μM) for the MDA-1186 SCCHN tumor cell line. Apoptosis measurements were determined by measuring caspase 3/7 activity (Caspase Glo, Promega) and were captured 24 and 48 hours after dosing.
as §4
Experiment [18] has as its system Akt. Put plainly: Western blotting of Akt phosphorylation, A673. As to conditions: 24 hour; for Akt pathway activity / activation state, single agent: OSI-906 3 uM, Doxorubicin 500nM or 1 μM.
Experiment [19] concerns Erk. The experiment can be described thus: Western blotting of Erk phosphorylation, A673. As to conditions: 24 hour; for MAPK (Erk) pathway activity / activation state, single agent: OSI-906 3 uM, Doxorubicin 500nM or 1 μM.
Experiment [20] deals with Akt phosphorylation (pAkt-S473). Put plainly: Western blotting of Akt phosphorylation, MDA-MB-231.
In experiment [21] the test system is IGF-1R. The experiment can be described thus: Proteome Profiler RTK capture array, pIGF-1R in A673. As to conditions: for phosphorylation of IGF-1R, single agent: OSI-906 3 μM, Doxorubicin 500 nM, MAB391 10 ug/ml.
Description: as §2, §1

Each structure is given as a SMILES string. Values joined by “and” are separate entries in the source; they are usually repeats but may differ in a detail not shown here. Equal values may be shown once. “Also recorded” adds a separate entry of the source.

As to `CC(=O)O[C@H]1C(=O)[C@@]2(C)[C@H]([C@H](OC(=O)c3ccccc3)[C@]3(O)C[C@H](OC(=O)[C@H](O)[C@@H](NC(=O)c4ccccc4)c4ccccc4)C(C)=C1C3(C)C)[C@]1(OC(C)=O)CO[C@@H]1C[C@@H]2O` [taxol, paclitaxel], the IGF-1R phosphorylation result in experiment [1] (H292, taxol 100 nM, 24 hours) was “promote an increase in IGF-1R phosphorylation”; in [5], “Only in H292 tumor cells did taxol promote an increase in IGF-1R phosphorylation”. Besides, in [1] (H292 in vitro, 30 nM paclitaxel, 2 and 6 hours), the pIGF-1R over time result was “time-dependent increase in pIGF-1R”. Also, the 50% effective concentration (EC50) in experiment [1] (Homo sapiens, NCI-H292, H292, 24 hours after dosing, read-out: EC50 for promoting phosphorylation of IGF-1R) was determined as 0.01 µM. The “phosphorylation of the IGF-1R complex” value in experiment [2] is given as “promote phosphorylation of the IGF-1R complex”. The pAkt over time result in experiment [3] is on record as “modest increase in the Akt survival pathway, however this pathway is further driven upon prolonged 6 hour exposure to paclitaxel”. The “pIGF-1R levels in tumors” value in [4] is listed as “upregulated”.

Take `CC1(O)CC(c2nc(-c3ccc4ccc(-c5ccccc5)nc4c3)c3c(N)nccn23)C1` (stereo not drawn) [Compound D, cis-3-[8-amino-1-(2-phenyl-quinolin-7-yl)-imidazo[1,5-a]pyrazin-3-yl]-1-methyl-cyclobutanol]: the “induction in apoptosis (caspase 3/7 activity), combination” value in experiment [6] (1 μM doxorubicin and 0.3 μM compound D) is listed as “about 3 fold”. Besides, the “apoptosis (caspase 3/7 activity), combination with doxorubicin” value is recorded as “synergistic promotion of apoptosis; also recorded: synergistic increase in doxorubicin-mediated apoptosis; also recorded: extent of cooperativity appears to be greater at higher concentrations of OSI-906, i.e. 3 μM, than that achieved maximally by a-IR3; also recorded: synergistic induction of apoptosis” in [7] and “synergistic promotion of apoptosis” in [8]. Moreover, the “overall cell growth, combination with doxorubicin” value in [9] was “synergistic promotion of apoptosis and inhibition of overall cell growth”; in experiment [10], “synergistic promotion of apoptosis and inhibition of overall cell growth”. Moreover, the “phosphorylation of IR, single agent” value in [11] was “achieves inhibition for both pIR and pIGF-1R”. Besides, the “phosphorylation of IR, combination with doxorubicin” value in [11] (with Doxorubicin 500 nM) is on record as “blocked upon co-treatment with OSI-906”. In addition, the “apoptosis, single agent” value in experiment [12] (OSI-906 alone) is “fails to promote apoptosis or significantly inhibit cell growth”; in [17] (OSI-906 alone) it was “did not achieve significant apoptosis as a single agent”. Also, the “apoptosis, combination with taxol” value in [12] (in the presence of 12 nM Taxol, listed as OSI-906) is “synergistic promotion of apoptosis and inhibition of cell survival; also recorded: increase the pro-apoptotic effects of doxorubicin”; in [17] (Taxol 10 nM, 24 and 48 hours, listed as OSI-906), “promoted a dose dependent increase in apoptosis; also recorded: synergistic induction of apoptosis”. For the same compound, the “increase in apoptosis (apoptosis gain), combination with cisplatin” value in [13] is > 3 fold and > 2 fold. The “apoptosis gain, combination with taxol” value in experiment [14] (OSI-906 30 nM-3 μM with 3 nM Taxol, 24 hours) is above 2 fold. For the same compound, the “induction of apoptosis, combination with paclitaxel” value in experiment [14] (paclitaxel and OSI-906) is recorded as “synergistic induction of apoptosis”. In [15], the “synergy for the combination of OSI-906 and taxol (apoptosis)” value is recorded as “observed for H292, but not H358”. For the same compound, the “overall cell growth, combination with taxol” value in [16] (5 μM OSI-906 with taxol, 72 hours, versus Bliss additivity) is “greater than additive inhibition of overall cell growth”. In addition, the “overall cell growth, single agent” value in experiment [16] (OSI-906 alone) is reported as “fails to promote apoptosis or significantly inhibit cell growth”. Besides, the “Akt activation state, co-treatment with doxorubicin” value in experiment [18] (OSI-906 3 uM plus doxorubicin) is given as “gain in activity can be inhibited upon co-treatment with OSI-906”. Besides, the “Akt pathway activity / activation state, single agent” value in [18] is “achieves inhibition of both pathways”. Further, in experiment [19] (OSI-906 3 uM plus doxorubicin), the “Erk activation state, co-treatment with doxorubicin” value is “gain in activity can be inhibited upon co-treatment with OSI-906”. Also, in experiment [19], the “MAPK (Erk) pathway activity / activation state, single agent” value was “achieves inhibition of both pathways”. Besides, the “Akt phosphorylation (pAkt-S473), combination with doxorubicin” value in [20] (combination of doxorubicin and Compound D) is “efficacious at inhibiting the increase in Akt phosphorylation provoked by doxorubicin”. In [21], the “phosphorylation of IGF-1R, single agent” value is “achieves inhibition for both pIR and pIGF-1R”. Moreover, the “phosphorylation of IGF-1R, combination with doxorubicin” value in [21] (with Doxorubicin 500 nM) is given as “blocked upon co-treatment with OSI-906”.

Turning to `COc1cccc2c1C(=O)c1c(O)c3c(c(O)c1C2=O)C[C@@](O)(C(=O)CO)C[C@@H]3O[C@H]1C[C@H](N)[C@H](O)[C@H](C)O1` [doxorubicin, reference compound], the “induction in apoptosis (caspase 3/7 activity), single agent” value in experiment [6] (doxorubicin alone) is “only a small induction in apoptosis”. Besides, the “phosphorylation of IR, single agent” value in experiment [11] was “promotes an upregulation of the phosphorylation state for both IR and IGF-1R”. The “Akt pathway activity / activation state, single agent” value in experiment [18] is “increase in the activation states for both Akt and Erk”. Moreover, in experiment [19], the “MAPK (Erk) pathway activity / activation state, single agent” value is “increase in the activation states for both Akt and Erk”. In addition, in [20] (24 hours), the “Akt phosphorylation (pAkt-S473), single agent” value is given as “promotes an increase in Akt phosphorylation”. The “phosphorylation of IGF-1R, single agent” value in [21] is “promotes an upregulation of the phosphorylation state for both IR and IGF-1R”.
